# Results as given in patent US20260295053A1, “COMPOUNDS FOR DEGRADATION AND INHIBITION OF KRAS (G12D) PROTEIN” (Shenzhen Ionova Life Science Co., Ltd., priority 2023, published 2026).
# Tests used:
# [1] = molecular target: T1, KRAS (G12D) (Homo sapiens, UniProt P01116, G12D); assay: KRAS (G12D) cellular degradation assay in AsPC-1 cells; type: cell-based; details: 24 hours, antibody fluorescence (Odyssey CLX), DC50 half-maximal degradation concentration
# T1 construct: in-cell western with KRAS G12D antibody after 24 h
# In short: (§1)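 Half-maximal degradation (DC50) and inhibition (IC50) concentrations are fitted from dose-response curves spanning […] to 1.5 nM final. KRAS G12D loss is measured by fluorescent antibody staining with β-actin reference after 24 h; growth is measured by ATP luminescence after a 6-day exposure.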
# [2] = test system: AsPC-1 cells; assay: AsPC-1 cell proliferation assay (CellTiter Glo); type: cell-based; details: Homo sapiens, ASPC1, 144 h, 6 days
# In short: as §1
# T1 sequence (P01116 1-188 isoform P01116-2 G12D): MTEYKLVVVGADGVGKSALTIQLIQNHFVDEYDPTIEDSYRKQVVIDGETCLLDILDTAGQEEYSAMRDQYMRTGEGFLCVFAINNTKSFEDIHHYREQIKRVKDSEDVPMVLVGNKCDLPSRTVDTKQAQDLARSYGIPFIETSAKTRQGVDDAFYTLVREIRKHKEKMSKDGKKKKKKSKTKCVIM
Compound,DC50 [1],IC50 [2]
"Cc1ncsc1-c1ccc([C@H](CO)NC(=O)[C@@H]2C[C@@H](O)CN2C(=O)[C@H](C(C)C)n2cc(-c3ccc(COc4c(-c5c(C)c(F)cc6[nH]ncc56)c(C5CC5)cc5c(N6CC7CCC(C6)N7)nc(OC6CCOCC6)nc45)cc3)nn2)cc1 [Example 49, (2S,4R)-1-((2S)-2-(4-(4-(((4-(3,8-diazabicyclo[3.2.1]octan-3-yl)-6-cyclopropyl-7-(6-fluoro-5-methyl-1H-indazol-4-yl)-2-((tetrahydro-2H-pyran-4-yl)oxy)quinazolin-8-yl)oxy)methyl)phenyl)-1H-1,2,3-triazol-1-yl)-3-methylbutanoyl)-4-hydroxy-N—((R)-2-hydroxy-1-(4-(4-methylthiazol-5-yl)phenyl)ethyl)pyrrolidine-2-carboxamide]",< 10 nM,< 10 nM
"CCn1nccc1-c1ccc([C@H](CO)NC(=O)[C@@H]2C[C@@H](O)CN2C(=O)[C@H](C(C)C)n2cc(-c3ccc(COc4c(-c5c(C)c(F)cc6[nH]ncc56)c(C5CC5)cc5c(N6C[C@@H]7C[C@H]6CN7)nc(OCC6COC7OCCC67)nc45)cc3)nn2)cc1 (stereo partly drawn) [Example 51, (2S,4R)-1-((2S)-2-(4-(4-(((4-((1S,4S)-2,5-diazabicyclo[2.2.1]heptan-2-yl)-6-cyclopropyl-7-(6-fluoro-5-methyl-1H-indazol-4-yl)-2-((hexahydrofuro[2,3-b]furan-3-yl)methoxy)quinazolin-8-yl)oxy)methyl)phenyl)-1H-1,2,3-triazol-1-yl)-3-methylbutanoyl)-N—((R)-1-(4-(1-ethyl-1H-pyrazol-5-yl)phenyl)-2-hydroxyethyl)-4-hydroxypyrrolidine-2-carboxamide]",< 10 nM,< 10 nM
"CCn1nccc1-c1ccc([C@H](CO)NC(=O)[C@@H]2C[C@@H](O)CN2C(=O)[C@H](C(C)C)n2cc(-c3ccc(COc4c(-c5c(C)c(F)cc6[nH]ncc56)c(C5CC5(F)F)cc5c(N6C[C@@H]7C[C@H]6CN7)nc(OC[C@H](C)OC)nc45)cc3)nn2)cc1 (stereo partly drawn) [Example 52, (2S,4R)-1-((2S)-2-(4-(4-(((4-((1S,4S)-2,5-diazabicyclo[2.2.1]heptan-2-yl)-6-(2,2-difluorocyclopropyl)-7-(6-fluoro-5-methyl-1H-indazol-4-yl)-2-((S)-2-methoxypropoxy)quinazolin-8-yl)oxy)methyl)phenyl)-1H-1,2,3-triazol-1-yl)-3-methylbutanoyl)-N—((R)-1-(4-(1-ethyl-1H-pyrazol-5-yl)phenyl)-2-hydroxyethyl)-4-hydroxypyrrolidine-2-carboxamide]",10 to 100 nM,< 10 nM
"CCn1nccc1-c1ccc([C@H](CO)NC(=O)[C@@H]2C[C@@H](O)CN2C(=O)[C@H](C(C)C)n2cc(-c3ccc(COc4c(-c5c(C)c(F)cc6[nH]ncc56)c(C5CC5)cc5c(N6C[C@@H]7C[C@H]6CN7)nc(OCC6(C(F)F)CC6)nc45)cc3)nn2)cc1 [Example 53, (2S,4R)-1-((2S)-2-(4-(4-(((4-((1S,4S)-2,5-diazabicyclo[2.2.1]heptan-2-yl)-6-cyclopropyl-2-((1-(difluoromethyl)cyclopropyl)methoxy)-7-(6-fluoro-5-methyl-1H-indazol-4-yl)quinazolin-8-yl)oxy)methyl)phenyl)-1H-1,2,3-triazol-1-yl)-3-methylbutanoyl)-N—((R)-1-(4-(1-ethyl-1H-pyrazol-5-yl)phenyl)-2-hydroxyethyl)-4-hydroxypyrrolidine-2-carboxamide]",< 10 nM,< 10 nM
"CO[C@@H](C)COc1nc(N2C[C@@H]3C[C@H]2CN3)c2cc(C3CC3)c(-c3c(C)c(F)cc4[nH]ncc34)c(OCc3ccc(-c4cn([C@H](C(=O)N5C[C@H](O)C[C@H]5C(=O)N[C@H](C#Cc5ccc6ncsc6c5)CO)C(C)C)nn4)cc3)c2n1 [Example 54, (2S,4R)-1-((2S)-2-(4-(4-(((4-((1S,4S)-2,5-diazabicyclo[2.2.1]heptan-2-yl)-6-cyclopropyl-7-(6-fluoro-5-methyl-1H-indazol-4-yl)-2-((S)-2-methoxypropoxy)quinazolin-8-yl)oxy)methyl)phenyl)-1H-1,2,3-triazol-1-yl)-3-methylbutanoyl)-N—((R)-4-(benzo[d]thiazol-6-yl)-1-hydroxybut-3-yn-2-yl)-4-hydroxypyrrolidine-2-carboxamide]",10 to 100 nM,< 10 nM
"CCn1nccc1-c1ccc([C@H](CC(=O)NC)NC(=O)[C@@H]2C[C@@H](O)CN2C(=O)[C@H](C(C)C)n2cc(-c3ccc(COc4c(-c5c(C)c(F)cc6[nH]ncc56)c(C5CC5)cc5c(N6C[C@@H]7C[C@H]6CN7)nc(OC[C@H](C)OC)nc45)cc3)nn2)cc1 [Example 55, (2S,4R)-1-((2S)-2-(4-(4-(((4-((1S,4S)-2,5-diazabicyclo[2.2.1]heptan-2-yl)-6-cyclopropyl-7-(6-fluoro-5-methyl-1H-indazol-4-yl)-2-((S)-2-methoxypropoxy)quinazolin-8-yl)oxy)methyl)phenyl)-1H-1,2,3-triazol-1-yl)-3-methylbutanoyl)-N—((S)-1-(4-(1-ethyl-1H-pyrazol-5-yl)phenyl)-3-(methylamino)-3-oxopropyl)-4-hydroxypyrrolidine-2-carboxamide]",< 10 nM,< 10 nM
"CCn1nccc1-c1ccc([C@H](CO)NC(=O)[C@@H]2C[C@@H](O)CN2C(=O)[C@H](C(C)C)n2cc(-c3ccc(COc4c(-c5c(C)c(F)cc6[nH]ncc56)c(C5CC5)cc5c(N6C[C@@H]7C[C@H]6CN7)nc(O[C@H]6CO[C@H]7OCC[C@H]76)nc45)cc3)nn2)cc1 [Example 56, (2S,4R)-1-((2S)-2-(4-(4-(((4-((1S,4S)-2,5-diazabicyclo[2.2.1]heptan-2-yl)-6-cyclopropyl-7-(6-fluoro-5-methyl-1H-indazol-4-yl)-2-(((3R,3aS,6aR)-hexahydrofuro[2,3-b]furan-3-yl)oxy)quinazolin-8-yl)oxy)methyl)phenyl)-1H-1,2,3-triazol-1-yl)-3-methylbutanoyl)-N—((R)-1-(4-(1-ethyl-1H-pyrazol-5-yl)phenyl)-2-hydroxyethyl)-4-hydroxypyrrolidine-2-carboxamide]",< 10 nM,< 10 nM
"CCn1nccc1-c1ccc([C@H](CO)NC(=O)[C@@H]2C[C@@H](O)CN2C(=O)[C@H](C(C)C)n2cc(-c3ccc(COc4c(-c5c(C)c(F)c(F)c6[nH]ncc56)c(C5CC5)cc5c(N6C[C@@H]7C[C@H]6CN7)nc(OC[C@H](C)OC)nc45)cc3)nn2)cc1 [Example 57, (2S,4R)-1-((2S)-2-(4-(4-(((4-((1S,4S)-2,5-diazabicyclo[2.2.1]heptan-2-yl)-6-cyclopropyl-7-(6,7-difluoro-5-methyl-1H-indazol-4-yl)-2-((S)-2-methoxypropoxy)quinazolin-8-yl)oxy)methyl)phenyl)-1H-1,2,3-triazol-1-yl)-3-methylbutanoyl)-N—((R)-1-(4-(1-ethyl-1H-pyrazol-5-yl)phenyl)-2-hydroxyethyl)-4-hydroxypyrrolidine-2-carboxamide]",< 10 nM,< 10 nM
